Experimental data as given in patent publication US11497212B2, “Substituted thiophenyl uracils, salts thereof and the use thereof as herbicidal agents” (Syngenta Crop Protection AG, priority 2017, dated 2022).
One block for each compound: values may come before it.

Legend:
Assay type in all cases: in vivo
[1] = test system: Abutilon theophrasti; assay: Herbicidal action post-emergence (greenhouse pot trial); details: application rate 20 g/ha, scored visually after about 3 weeks vs untreated controls
Method: (§1) Seeds of mono- and dicotyledonous weed plants and crop plants are laid out in sandy loam soil in plastic or wood-fiber pots, covered with earth and grown under controlled growth conditions in a greenhouse. 2 to 3 weeks after sowing, the trial plants are treated at the one-leaf stage. The compounds of the invention formulated in the form of wettable powders (WP) or emulsion concentrates (EC) were then sprayed onto the green parts of the plant as an aqueous suspension or emulsion with addition of 0.5% additive at a water application rate equivalent to 600 L/ha. After the trial plants had stood for about 3 weeks in the greenhouse, under optimal growth conditions, the effect of the preparations was scored visually by comparison with untreated controls. For example, 100% efficacy=plants have died, 0% efficacy=like control plants. Tables A1 to A15 below show the efficacies of selected compounds of the general formula (I) according to tables I.1 to I.60 on various harmful plants and an application rate corresponding to 80 g/ha or lower that were obtained by the aforementioned trial method.

[2] = test system: Amaranthus retroflexus; assay: as above; details: application rate 20 g/ha, scored visually after about 3 weeks vs untreated controls
Method: as §1

[3] = test system: Polygonum convolvulus; assay: as above; details: application rate 20 g/ha, scored visually after about 3 weeks vs untreated controls
Method: as §1

[4] = test system: Setaria viridis; assay: as above; details: application rate 20 g/ha, scored visually after about 3 weeks vs untreated controls
Method: as §1

[5] = test system: Stellaria media; assay: as above; details: application rate 20 g/ha, scored visually after about 3 weeks vs untreated controls
Method: as §1

[6] = test system: Veronica persica; assay: as above; details: application rate 20 g/ha
Method: as §1

[7] = test system: Viola tricolor; assay: as above; details: application rate 20 g/ha
Method: as §1

[8] = test system: Oryza sativa; assay: Crop compatibility post-emergence (greenhouse pot trial); details: application rate 20 g/ha
Method: as §1, with “plants.” for “plants. Tables A1 to A15 below show the efficacies of selected compounds of the general formula (I) according to tables I.1 to I.60 on various harmful plants and an application rate corresponding to 80 g/ha or lower that were obtained by the aforementioned trial method.”
(§2) Crop plant compatibilities were also scored correspondingly.
(§3) The effects observed are reported here on selected crop plants by comparison with the untreated controls (values in %).

[9] = test system: Triticum aestivum; assay: as above
Method: as §1, with “plants.” for “plants. Tables A1 to A15 below show the efficacies of selected compounds of the general formula (I) according to tables I.1 to I.60 on various harmful plants and an application rate corresponding to 80 g/ha or lower that were obtained by the aforementioned trial method.”
as §2, §3

[10] = test system: Zea mays; assay: as above
Method: as §1, with “plants.” for “plants. Tables A1 to A15 below show the efficacies of selected compounds of the general formula (I) according to tables I.1 to I.60 on various harmful plants and an application rate corresponding to 80 g/ha or lower that were obtained by the aforementioned trial method.”
as §2, §3

[11] = test system: Alopecurus myosuroides; assay: Herbicidal action post-emergence (greenhouse pot trial); details: application rate 20 g/ha, scored visually after about 3 weeks vs untreated controls
Method: as §1

[12] = test system: Pharbitis purpurea; assay: as above; details: application rate 20 g/ha
Method: as §1

[13] = test system: Digitaria sanguinalis; assay: as above; details: application rate 20 g/ha
Method: as §1

[14] = test system: Echinochloa crus-galli; assay: as above; details: application rate 20 g/ha, scored visually after about 3 weeks vs untreated controls
Method: as §1

[15] = test system: Matricaria inodora; assay: as above; details: application rate 20 g/ha, scored visually after about 3 weeks vs untreated controls
Method: as §1

[16] = test system: Abutilon theophrasti; assay: Herbicidal action pre-emergence (greenhouse pot trial); details: application rate 80 g/ha, scored after about 3 weeks
Text: (§4) Seeds of mono- and dicotyledonous weeds and crop plants were laid out in plastic or organic plant pots and covered with soil. The compounds of the invention formulated in the form of wettable powders (WP) or emulsion concentrates (EC) were then applied to the surface of the covering soil as an aqueous suspension or emulsion with addition of 0.5% additive at a water application rate equivalent to 600 L/ha. After the treatment, the pots were placed in a greenhouse and kept under good growth conditions for the test plants. After about 3 weeks, the efficacy of the preparations was scored visually as a percentage by comparison with untreated controls. For example, 100% efficacy=plants have died, 0% efficacy=like control plants. Tables B1 to B16 below show the efficacies of selected compounds of the general formula (I) according to tables I.1 to I.60 on various harmful plants and an application rate corresponding to 320 g/ha or lower that were obtained by the aforementioned trial method.

[17] = test system: Amaranthus retroflexus; assay: as above; details: application rate 80 g/ha, scored after about 3 weeks
Text: as §4

[18] = test system: Matricaria inodora; assay: as above; details: application rate 80 g/ha, scored after about 3 weeks
Text: as §4

[19] = test system: Viola tricolor; assay: as above; details: application rate 80 g/ha, scored after about 3 weeks
Text: as §4

[20] = test system: Glycine max; assay: Crop compatibility pre-emergence (greenhouse pot trial); details: application rate 80 g/ha, effect vs untreated controls
Text: as §4, with “plants.” for “plants. Tables B1 to B16 below show the efficacies of selected compounds of the general formula (I) according to tables I.1 to I.60 on various harmful plants and an application rate corresponding to 320 g/ha or lower that were obtained by the aforementioned trial method.”
(§5) Crop compatibilities were also scored correspondingly.
as §3

[21] = test system: Zea mays; assay: as above; details: application rate 80 g/ha, effect vs untreated controls
Text: as §4, with “plants.” for “plants. Tables B1 to B16 below show the efficacies of selected compounds of the general formula (I) according to tables I.1 to I.60 on various harmful plants and an application rate corresponding to 320 g/ha or lower that were obtained by the aforementioned trial method.”
as §5, §3

Oryza sativa (Efficacy in %) [8]: 10% | Triticum aestivum (Efficacy in %) ([9]; application rate 20 g/ha): 0% | Zea mays (Efficacy in %) ([10]; application rate 5 g/ha): 10%
SMILES: Cn1c(C(F)(F)F)cc(=O)n(-c2cc(SCC(C)(C)C(=O)OCC3CCCOC3)c(Cl)cc2F)c1=O (stereo not shown) [I.48-92, Tetrahydro-2H-pyran-3-ylmethyl 3-({2-chloro-4-fluoro-5-[3-methyl-2,6-dioxo-4-(trifluoromethyl)-3,6-dihydropyrimidin-1(2H)-yl]phenyl}sulfanyl)-2,2-dimethylpropanoate]
Abutilon theophrasti (Efficacy in %) [1]: 100% | Amaranthus retroflexus (Efficacy in %) [2]: 100% | Polygonum convolvulus (Efficacy in %) [3]: 80% | Setaria viridis (Efficacy in %) [4]: 100% | Stellaria media (Efficacy in %) [5]: 100% | Veronica persica (Efficacy in %) [6]: 100% | Viola tricolor (Efficacy in %) [7]: 100%

Oryza sativa (Efficacy in %) [8]: 0% | Triticum aestivum (Efficacy in %) ([9]; application rate 20 g/ha): 0%
SMILES: Cn1c(C(F)(F)F)cc(=O)n(-c2cc(SCC(C)(C)C(=O)OCC3CCOCC3)c(Cl)cc2F)c1=O [I.48-93]
Abutilon theophrasti (Efficacy in %) [1]: 100% | Alopecurus myosuroides (Efficacy in %) [11]: 80% | Amaranthus retroflexus (Efficacy in %) [2]: 100% | Pharbitis purpurea (Efficacy in %) [12]: 100% | Polygonum convolvulus (Efficacy in %) [3]: 80% | Stellaria media (Efficacy in %) [5]: 100% | Veronica persica (Efficacy in %) [6]: 100% | Viola tricolor (Efficacy in %) [7]: 100%

Triticum aestivum (Efficacy in %) ([9]; application rate 20 g/ha): 20%
SMILES: COC(C)COC(=O)C(C)Sc1cc(-n2c(=O)cc(C(F)(F)F)n(C)c2=O)c(F)cc1Cl (stereo not shown) [I.1-51]
Abutilon theophrasti (Efficacy in %) [1]: 100% | Alopecurus myosuroides (Efficacy in %) [11]: 80% | Amaranthus retroflexus (Efficacy in %) [2]: 100% | Digitaria sanguinalis (Efficacy in %) [13]: 100% | Echinochloa crus-galli (Efficacy in %) [14]: 100% | Matricaria inodora (Efficacy in %) [15]: 100% | Pharbitis purpurea (Efficacy in %) [12]: 100% | Polygonum convolvulus (Efficacy in %) [3]: 100% | Setaria viridis (Efficacy in %) [4]: 100% | Stellaria media (Efficacy in %) [5]: 80% | Veronica persica (Efficacy in %) [6]: 100% | Viola tricolor (Efficacy in %) [7]: 100%

Oryza sativa (Efficacy in %) [8]: 20% | Triticum aestivum (Efficacy in %) ([9]; application rate 5 g/ha): 20% | Zea mays (Efficacy in %) ([10]; application rate 5 g/ha): 20%
SMILES: COCCNC(=O)C(C)Sc1cc(-n2c(=O)cc(C(F)(F)F)n(C)c2=O)c(F)cc1Cl (stereo not shown) [I.1-151]
Abutilon theophrasti (Efficacy in %) [1]: 100% | Amaranthus retroflexus (Efficacy in %) [2]: 100% | Digitaria sanguinalis (Efficacy in %) [13]: 80% | Matricaria inodora (Efficacy in %) [15]: 100% | Pharbitis purpurea (Efficacy in %) [12]: 100% | Polygonum convolvulus (Efficacy in %) [3]: 100% | Setaria viridis (Efficacy in %) [4]: 100% | Stellaria media (Efficacy in %) [5]: 100% | Veronica persica (Efficacy in %) [6]: 100% | Viola tricolor (Efficacy in %) [7]: 100%

Oryza sativa (Efficacy in %) [8]: 0% | Triticum aestivum (Efficacy in %) ([9]; application rate 5 g/ha): 0% | Zea mays (Efficacy in %) ([10]; application rate 5 g/ha): 0%
SMILES: CCC(Sc1cc(-n2c(=O)c(C)c(C(F)(F)F)n(C)c2=O)c(F)cc1Cl)C(=O)OCC1CCCO1 (stereo not shown) [I.12-71]
Abutilon theophrasti (Efficacy in %) [1]: 100% | Amaranthus retroflexus (Efficacy in %) [2]: 100% | Echinochloa crus-galli (Efficacy in %) [14]: 100% | Matricaria inodora (Efficacy in %) [15]: 80% | Pharbitis purpurea (Efficacy in %) [12]: 100% | Polygonum convolvulus (Efficacy in %) [3]: 80% | Stellaria media (Efficacy in %) [5]: 100% | Veronica persica (Efficacy in %) [6]: 100% | Viola tricolor (Efficacy in %) [7]: 100%

Oryza sativa (Efficacy in %) [8]: 0% | Triticum aestivum (Efficacy in %) ([9]; application rate 20 g/ha): 0%
SMILES: Cn1c(C(F)(F)F)cc(=O)n(-c2cc(SCC(C)(C)C(=O)OC3CCOC3)c(Cl)cc2F)c1=O (stereo not shown) [I.48-121]
Abutilon theophrasti (Efficacy in %) [1]: 100% | Alopecurus myosuroides (Efficacy in %) [11]: 80% | Amaranthus retroflexus (Efficacy in %) [2]: 100% | Digitaria sanguinalis (Efficacy in %) [13]: 80% | Matricaria inodora (Efficacy in %) [15]: 100% | Pharbitis purpurea (Efficacy in %) [12]: 100% | Polygonum convolvulus (Efficacy in %) [3]: 100% | Stellaria media (Efficacy in %) [5]: 80% | Veronica persica (Efficacy in %) [6]: 100% | Viola tricolor (Efficacy in %) [7]: 100%

Oryza sativa (Efficacy in %) [8]: 0% | Triticum aestivum (Efficacy in %) ([9]; application rate 5 g/ha): 10% | Zea mays (Efficacy in %) ([10]; application rate 20 g/ha): 20% | Glycine max (Efficacy in %) [20]: 20% | Zea mays (Efficacy in %) [21]: 0%
SMILES: CC(Sc1cc(-n2c(=O)cc(C(F)(F)F)n(C)c2=O)c(F)cc1Cl)C(=O)OC1CCSCC1 (stereo not shown) [I.1-132]
Abutilon theophrasti (Efficacy in %) [1]: 100% | Amaranthus retroflexus (Efficacy in %) [2]: 100% | Matricaria inodora (Efficacy in %) [15]: 100% | Pharbitis purpurea (Efficacy in %) [12]: 100% | Polygonum convolvulus (Efficacy in %) [3]: 100% | Stellaria media (Efficacy in %) [5]: 80% | Veronica persica (Efficacy in %) [6]: 100% | Viola tricolor (Efficacy in %) [7]: 100% | Abutilon theophrasti (Efficacy in %) [16]: 100% | Amaranthus retroflexus (Efficacy in %) [17]: 100% | Matricaria inodora (Efficacy in %) [18]: 100% | Viola tricolor (Efficacy in %) [19]: 90%

Triticum aestivum (Efficacy in %) ([9]; application rate 5 g/ha): 20%
SMILES: CCC(Sc1cc(-n2c(=O)cc(C(F)(F)F)n(C)c2=O)c(F)cc1Cl)C(=O)OCC1CCCOC1 (stereo not shown) [I.2-92, Tetrahydro-2H-pyran-3-ylmethyl 2-({2-chloro-4-fluoro-5-[3-methyl-2,6-dioxo-4-(trifluoromethyl)-3,6-dihydropyrimidin-1(2H)-yl]phenyl}sulfanyl)butanoate]
Abutilon theophrasti (Efficacy in %) [1]: 100% | Alopecurus myosuroides (Efficacy in %) [11]: 80% | Amaranthus retroflexus (Efficacy in %) [2]: 100% | Digitaria sanguinalis (Efficacy in %) [13]: 100% | Echinochloa crus-galli (Efficacy in %) [14]: 100% | Matricaria inodora (Efficacy in %) [15]: 100% | Pharbitis purpurea (Efficacy in %) [12]: 100% | Polygonum convolvulus (Efficacy in %) [3]: 100% | Setaria viridis (Efficacy in %) [4]: 100% | Stellaria media (Efficacy in %) [5]: 100% | Veronica persica (Efficacy in %) [6]: 100% | Viola tricolor (Efficacy in %) [7]: 100%

Triticum aestivum (Efficacy in %) ([9]; application rate 5 g/ha): 20%
SMILES: CCC(Sc1cc(-n2c(=O)cc(C(F)(F)F)n(C)c2=O)c(F)cc1Cl)C(=O)OCC1CCCCO1 (stereo not shown) [I.2-91, Tetrahydro-2H-pyran-2-ylmethyl 2-({2-chloro-4-fluoro-5-[3-methyl-2,6-dioxo-4-(trifluoromethyl)-3,6-dihydropyrimidin-1(2H)-yl]phenyl}sulfanyl)butanoate]
Abutilon theophrasti (Efficacy in %) [1]: 100% | Alopecurus myosuroides (Efficacy in %) [11]: 90% | Amaranthus retroflexus (Efficacy in %) [2]: 100% | Echinochloa crus-galli (Efficacy in %) [14]: 100% | Matricaria inodora (Efficacy in %) [15]: 100% | Pharbitis purpurea (Efficacy in %) [12]: 100% | Polygonum convolvulus (Efficacy in %) [3]: 100% | Setaria viridis (Efficacy in %) [4]: 100% | Stellaria media (Efficacy in %) [5]: 80% | Veronica persica (Efficacy in %) [6]: 100% | Viola tricolor (Efficacy in %) [7]: 100%
